Source: patent US20120214862A1, “MODULATION OF FACTOR 7 EXPRESSION” (ISIS Pharmaceuticals, Inc., priority 2009, published 2012)
In the oligonucleotide strings, read from the 5' end, every base follows the letter of its sugar. An asterisk marks phosphorothioate; unmarked linkages are phosphodiester. Other units and linkages are bracketed, terminal groups are in braces. A string of capitals states the bases alone. e = 2'-O-(2-methoxyethyl) (MOE); [5mC] = 5-methylcytosine; d = 2'-deoxy (DNA)

Tested on: human Factor 7 mRNA
Test: Antisense inhibition of human Factor 7 mRNA in HepB3 cells, lipofectin, 50 nM, real-time RT-PCR
Format: cell-based
Conditions: for % Inhibition of human Factor 7 mRNA levels: HepB3 cells, lipofectin, 50 nM antisense oligonucleotide, approximately 24 hours, primer probe set RTS 2927, relative to untreated control
In short: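 After transfection of wells containing 4,000 cells, treatment ran for approximately 24 h. RIBOGREEN®-measured total RNA served for normalisation, and inhibition was calculated as a percentage of untreated control.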

Substance	% Inhibition of human Factor 7 mRNA levels [%]	% Inhibition (human Factor 7 mRNA) (Example 6 microwalk, nucleobases 15098 to 15122 of SEQ ID NO: 1, HepB3, lipofectin, 50 nM, ~24 h) [%]
416462 (antisense eG*eG*e[5mC]*eA*eG*dT*d[5mC]*d[5mC]*dT*dG*dG*dG*dT*d[5mC]*dA*eT*e[5mC]*eA*eG*e[5mC]) [compound 416462]	60	
416463 (antisense eT*eG*e[5mC]*eT*eG*d[5mC]*dA*dG*dG*d[5mC]*dA*dG*dT*d[5mC]*d[5mC]*eT*eG*eG*eG*eT) [compound 416463]	39	
416464 (antisense eA*eA*e[5mC]*eA*eT*dG*dT*dA*d[5mC]*dT*d[5mC]*d[5mC]*dG*dT*dG*eA*eT*eA*eT*eT) [compound 416464]	53	
416465 (antisense e[5mC]*eA*e[5mC]*eT*eG*dT*d[5mC]*d[5mC]*d[5mC]*d[5mC]*d[5mC]*dT*dT*dG*d[5mC]*eA*eG*eG*eA*eG) [compound 416465]	51	
416466 (antisense eT*eG*eT*eG*eG*dG*d[5mC]*d[5mC]*dT*d[5mC]*d[5mC]*dA*d[5mC]*dT*dG*eT*e[5mC]*e[5mC]*e[5mC]*e[5mC]) [compound 416466]	57	
416467 (antisense e[5mC]*e[5mC]*e[5mC]*eT*eG*dG*d[5mC]*d[5mC]*d[5mC]*d[5mC]*dA*dG*d[5mC]*dT*dG*eA*e[5mC]*eG*eA*eT) [compound 416467]	55	
416468 (antisense eT*eG*eG*eG*eA*dG*dA*d[5mC]*d[5mC]*d[5mC]*dT*dG*dG*dT*dG*eT*eA*e[5mC]*eA*e[5mC]) [compound 416468]	46	
416469 (antisense eG*e[5mC]*eA*eG*e[5mC]*d[5mC]*dA*d[5mC]*dT*d[5mC]*dG*dA*dT*dG*dT*eA*e[5mC]*eT*eG*eG) [compound 416469]	55	
416470 (antisense eG*e[5mC]*eT*eT*eT*dT*dG*d[5mC]*dA*dG*d[5mC]*d[5mC]*dA*d[5mC]*dT*e[5mC]*eG*eA*eT*eG) [compound 416470]	39	
416471 (antisense eT*eG*eA*eG*e[5mC]*dT*dT*dT*dT*dG*d[5mC]*dA*dG*d[5mC]*d[5mC]*eA*e[5mC]*eT*e[5mC]*eG) [compound 416471]	62	
416473 (antisense e[5mC]*e[5mC]*e[5mC]*eT*eG*d[5mC]*d[5mC]*d[5mC]*d[5mC]*dT*d[5mC]*dT*dG*dT*d[5mC]*e[5mC]*eA*eG*e[5mC]*eG) [compound 416473]	61	
416474 (antisense eT*eG*eT*e[5mC]*eT*dG*d[5mC]*d[5mC]*dT*d[5mC]*d[5mC]*dA*dG*dG*dA*e[5mC]*eA*eA*e[5mC]*e[5mC]) [compound 416474]	40	
416475 (antisense e[5mC]*eT*e[5mC]*eA*eG*d[5mC]*dT*dG*dG*dG*d[5mC]*dT*dG*dT*d[5mC]*eT*eG*e[5mC]*e[5mC]*eT) [compound 416475]	70	
416476 (antisense eG*e[5mC]*eA*eG*eG*dT*dG*dG*dG*d[5mC]*dT*dT*dG*dG*d[5mC]*eT*eG*eA*eA*eG) [compound 416476]	58	
416478 (antisense eG*eT*e[5mC]*eT*e[5mC]*d[5mC]*dA*dG*d[5mC]*dA*dA*dT*dG*dA*dA*eG*eG*e[5mC]*eA*eG) [compound 416478]	44	
416479 (antisense eG*eA*e[5mC]*eA*eG*d[5mC]*dA*d[5mC]*dA*d[5mC]*dA*dT*dG*dG*dA*eG*eT*e[5mC]*eA*eG) [compound 416479]	56	47
416480 (antisense eA*eA*eG*eT*eG*dA*dG*dA*dG*d[5mC]*dT*dA*dA*dA*d[5mC]*eA*eA*e[5mC]*e[5mC]*eG) [compound 416480]	25	
416481 (antisense eA*eG*eA*eT*eG*dA*dT*dA*dA*dT*dG*dG*dA*dT*dA*eA*eG*eA*eA*e[5mC]) [compound 416481]	15	
